# Laboratory results published in US20020164348A1 (priority 2000, published 2002).
# T1: pJG-poliovirus 3D prey fusion (pJGPolio3D) (poliovirus Mahoney type 1, UniProt P03300 1749-2209)
# T1 sequence: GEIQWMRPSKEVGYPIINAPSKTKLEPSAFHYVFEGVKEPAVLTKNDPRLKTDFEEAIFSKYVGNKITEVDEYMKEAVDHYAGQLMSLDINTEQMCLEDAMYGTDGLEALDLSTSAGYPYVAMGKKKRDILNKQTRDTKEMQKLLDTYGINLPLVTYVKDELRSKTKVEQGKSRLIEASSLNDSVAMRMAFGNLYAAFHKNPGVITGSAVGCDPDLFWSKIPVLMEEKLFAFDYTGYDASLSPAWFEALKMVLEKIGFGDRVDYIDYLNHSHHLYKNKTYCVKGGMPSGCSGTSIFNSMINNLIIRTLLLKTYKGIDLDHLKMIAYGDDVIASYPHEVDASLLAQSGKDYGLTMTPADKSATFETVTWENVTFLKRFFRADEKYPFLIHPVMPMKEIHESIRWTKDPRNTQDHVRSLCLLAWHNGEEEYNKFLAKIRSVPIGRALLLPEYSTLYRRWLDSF
# How the values were obtained:
# rhinovirus polymerase = rhinovirus polymerase (Human rhinovirus 14, UniProt P03303); assay type: biochemical
# poliovirus polymerase = poliovirus polymerase (Poliovirus type 1, UniProt P03300)
# [1] = biological target: poliovirus RNA-dependent RNA polymerase 3Dpol WT (Poliovirus type 1 (Mahoney), UniProt P03300 P03300:1749-2209); assay: filter; details: tags: none stated, expressed in E. coli BL21(DE3) pLysS, N-terminal Met removed; label: 32P (alpha-32P CTP, T7 transcript); 20 bp blunt self-complementary duplex
# [2] = biological target: T1, pJG-poliovirus 3D prey fusion …; assay: yeast two-hybrid, colour on X-gal plates (- white); bait in row, prey in column
# rhinovirus polymerase, sequence (P03303 1720-2179 limits assumed): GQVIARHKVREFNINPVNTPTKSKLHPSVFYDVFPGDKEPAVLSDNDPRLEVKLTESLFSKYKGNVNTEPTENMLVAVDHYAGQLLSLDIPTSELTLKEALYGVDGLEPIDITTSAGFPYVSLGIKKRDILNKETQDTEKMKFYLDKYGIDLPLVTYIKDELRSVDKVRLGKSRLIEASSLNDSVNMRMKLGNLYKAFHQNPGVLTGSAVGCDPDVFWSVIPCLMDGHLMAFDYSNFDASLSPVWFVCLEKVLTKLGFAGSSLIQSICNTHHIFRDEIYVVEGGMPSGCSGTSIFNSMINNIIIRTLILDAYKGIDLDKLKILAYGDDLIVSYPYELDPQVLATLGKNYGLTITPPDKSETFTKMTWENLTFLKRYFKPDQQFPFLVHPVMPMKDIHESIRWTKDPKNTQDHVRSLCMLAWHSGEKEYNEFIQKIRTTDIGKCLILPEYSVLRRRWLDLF
molecule,measurement,setting,value
KPHKCTFEGCRKSYSRSTNLRRHLNSH (SEQ ID NO:5) [Peptide 1],activity of the rhinovirus polymerase,rhinovirus polymerase,inhibits
[Cl-].[Cl-].[Zn+2] [ZnCl2],effect on decrease in specific activity with decreasing polymerase concentration,poliovirus polymerase,nearly eliminates the decrease in specific activity
0.20 RNA (dsRNA) RNA 1: GGCAGCUGCAUGCAGCUGCC RNA 2: GGCAGCUGCAUGCAGCUGCC,binding result,[1],binds
Lex202 vector control (bait vector without a polymerase) (other) MKALTARQQEVFDLIRDHISQTGMPPTRAEIAQRLGFRSPNAAEEHLKALARKGVIEIVSGASRGIRLLQEEEEGLPLVGRVAAGEPLLAQQHIEGHYQVDPSLFKPNADFLLRVSGMSMKDIGIMDGDLLAVHKTQDVRNGQVVVARIDDEVTVKRLKKQGNKVELLPENSEFKPIVVDLRQQSFTIEGLAVGVIRNGDWL,binding result,[2],no binding
